Reference: patent US9034918B2, “Composition including at least one trans-cinnamaldehyde and the use thereof in the treatment of bacterial infections, specifically in the treatment of nosocomial infections” (SEPTEOS, priority 2009, dated 2015)

Tests used:
Assay type in all cases: cell-based
[1] = system: Gram-positive bacteria and Gram-negative bacteria, resistant strains; assay: Agar test, summary over the strains tested; details: also on resistant strains, low volume concentrations
From the text: For bacteria to have good accessibility (aqueous phase multiplication only) to essential oils, it is essential to find a method of aqueous phase solubilization. This step is neglected in much work that directly uses the lipid phase, which is inaccessible to bacteria (oil-soaked disc placed on agar). Moreover, for the topical use of oils, this solubilization phase is also essential, and with the goal of practical application, surfactants and solubilization adjuvants are also selected for their satisfactory cutaneous tolerance.
The final preparation includes: 1.0 ml of essential oil, 3.4 ml of Tween 80 and 5.6 ml of 10% molar propylene glycol aqueous solution.
The day before the test, inoculate the strains in BH medium and on tilted MHA. Prepare test tubes containing 19 ml and 18 ml of MHA. Prepare test tubes containing 5 ml of 10% molar propylene glycol for the various dilutions.
On the day of the test, solubilize the trans-cinnamaldehyde as follows: • 1 ml of trans-cinnamaldehyde • 3.4 ml of Tween 80 • 5.6 ml of 10% molar propylene glycol.
When the trans-cinnamaldehyde is solubilized, prepare successive 1/2 dilutions in 10% molar propylene glycol.
Add 1 ml of suitable dilutions in the test tubes containing 19 ml of medium, homogenize well and pour into Petri dishes. […]

Enterococcus strain 8152 = assay: Antibiogram by diffusion technique (CA-SFM 2008); parameters: Diameter: unit not given here
From the text: (§1) Three clinical categories were selected for interpretation of the in vitro sensitivity tests: sensitive (S), resistant (R) and intermediate (I). • The strains categorized S are those for which the probability of therapeutic success is high in the case of treatment by systemic route with the dosing schedule recommended in the summary of product characteristics (SPC) prepared by the French Health Products Safety Agency (AFSSAPS). • The strains categorized R are those for which there is a high probability of therapeutic failure regardless of treatment type and antibiotic dose. • The strains categorized I are those for which therapeutic success cannot be predicted. These strains form a heterogeneous group for which the results obtained in vitro are not predictive of therapeutic success. […] The intermediate category is also a buffer zone which takes into account technical and biological uncertainties.
(§2) The sensitivity of strains to antibiotics was determined by a diffusion technique according to the 2008 recommendations by the Antibiogram Committee of the French Microbiology Society (CA-SFM).
(§3) In terms of critical concentrations and diameters, strains are categorized as follows: • sensitive (S): strains for which the MIC of the antibiotic tested is less than or equal to the lower critical concentration c, which is equivalent to a diameter greater than or equal to the critical diameter D; • resistant (R): strains for which the MIC of the antibiotic tested are greater than the upper critical concentration C, corresponding to a diameter less than the critical diameter d; • intermediate sensitivity (I): strains for which the MIC of the antibiotic tested and the corresponding diameter are between the two critical concentrations and the two critical diameters.
(§4) The tests were carried out on Mueller-Hinton agar. An inoculum adjusted to 0.5 on the McFarland scale is then diluted to 1/100. Petri dishes are inoculated by swabbing. The dishes are read after 24 hours of incubation at 37° C.
(§5) The raw results are then interpreted according to the interpretative reading rules of the CA-SFM.

Enterococcus strain 8153 = assay: Antibiogram by diffusion technique (CA-SFM 2008); parameters: Diameter: unit not given here
From the text: as §1, §2, §3, §4, §5

[2] = system: golden staph (S. aureus) strain 8240; assay: Antibiogram by diffusion technique (CA-SFM 2008); parameters: D: unit not given here
From the text: as §1, §2, §3, §4, §5

[3] = system: golden staph (S. aureus) strain 8147; assay: Antibiogram by diffusion technique (CA-SFM 2008); parameters: D: unit not given here
From the text: as §1, §2, §3, §4, §5

[4] = system: golden staph (S. aureus) strain 8239; assay: Antibiogram by diffusion technique (CA-SFM 2008); parameters: D: unit not given here
From the text: as §1, §2, §3, §4, §5

E. coli strain 8155 = assay: Antibiogram by diffusion technique (CA-SFM 2008); parameters: D: unit not given here
From the text: as §1, §2, §3, §4, §5

E. coli strain 8156 = assay: Antibiogram by diffusion technique (CA-SFM 2008); parameters: D: unit not given here
From the text: as §1, §2, §3, §4, §5

E. coli strain 8157 = assay: Antibiogram by diffusion technique (CA-SFM 2008); parameters: D: unit not given here
From the text: as §1, §2, §3, §4, §5

[5] = system: Pseudomonas aeruginosa strain 8134; assay: Antibiogram by diffusion technique (CA-SFM 2008); parameters: D: unit not given here
From the text: as §1, §2, §3, §4, §5

[6] = system: Pseudomonas aeruginosa strain 8129; assay: Antibiogram by diffusion technique (CA-SFM 2008); parameters: D: unit not given here
From the text: as §1, §2, §3, §4, §5

E. coli strain 8154 = assay: Antibiogram by diffusion technique (CA-SFM 2008); parameters: D: unit not given here
From the text: as §1, §2, §3, §4, §5

[7] = system: Pseudomonas aeruginosa strain 8128; assay: Antibiogram by diffusion technique (CA-SFM 2008); parameters: D: unit not given here
From the text: as §1, §2, §3, §4, §5

[8] = system: Pseudomonas aeruginosa strain 8132; assay: Antibiogram by diffusion technique (CA-SFM 2008); parameters: D: unit not given here
From the text: as §1, §2, §3, §4, §5

[9] = system: Enterococcus faecium (9001); assay: Antibiogram by diffusion technique (CA-SFM 2008); details: strain 9001
From the text: as §1, §2, §3, §4, §5

[10] = system: strain 9010, Acinetobacter baumannii, with VEB-1 ESBL; assay: Antibiogram by diffusion technique (CA-SFM 2008)
From the text: as §1, §2, §3, §4, §5

[11] = system: strain 9007, Pseudomonas aeruginosa, with VIM-2 carbapenemase; assay: Antibiogram by diffusion technique (CA-SFM 2008)
From the text: as §1, §2, §3, §4, §5

E. coli ATCC 25922 = assay: Antibiogram by diffusion technique (CA-SFM 2008); parameters: Diameter (D): unit not given here
From the text: Three clinical categories were selected for interpretation of the in vitro sensitivity tests: sensitive (S), resistant (R) and intermediate (I). • The strains categorized S are those for which the probability of therapeutic success is high in the case of treatment by systemic route with the dosing schedule recommended in the summary of product characteristics (SPC) prepared by the French Health Products Safety Agency ([…]). • The strains categorized R are those for which there is a high probability of therapeutic failure regardless of treatment type and antibiotic dose. • The strains categorized I are those for which therapeutic success cannot be predicted. These strains form a heterogeneous group for which the results obtained in vitro are not predictive of therapeutic success. […] The intermediate category is also a buffer zone which takes into account technical and biological uncertainties. The sensitivity of strains to antibiotics was determined by a diffusion technique according to the 2008 recommendations by the Antibiogram Committee of the French Microbiology Society (CA-SFM). In terms of critical concentrations and diameters, strains are categorized as follows: • sensitive (S): strains for which the MIC of the antibiotic tested is less than or equal to the lower critical concentration c, which is equivalent to a diameter greater than or equal to the critical diameter D; • resistant (R): strains for which the MIC of the antibiotic tested are greater than the upper critical concentration C, corresponding to a diameter less than the critical diameter d; • intermediate sensitivity (I): strains for which the MIC of the antibiotic tested and the corresponding diameter are between the two critical concentrations and the two critical diameters. The tests were carried out on Mueller-Hinton agar. An inoculum adjusted to 0.5 on the McFarland scale is then diluted to 1/100. Petri dishes are inoculated by swabbing. The dishes are read after 24 hours of incubation at 37° C. The raw results are then interpreted according to the interpretative reading rules of the CA-SFM. Two examples: all strains of methicillin-resistant Staphylococcus are resistant to all beta-lactams, and the same is true for gentamicin-resistant strains; golden staph is necessarily resistant to kanamycin (and amikacin) and tobramycin. The quality of the diffusion method is controlled using E. coli strain ATCC 25922.

E. coli strain 9003 = assay: Antibiogram by diffusion technique (CA-SFM 2008)
From the text: as §1, §2, §3, §4, §5

[12] = system: Enterobacter aerogenes (9004); assay: Antibiogram by diffusion technique (CA-SFM 2008); details: strain 9004
From the text: as §1, §2, §3, §4, §5

Row | Compound | Category (Enterococcus strain 8152) | Diameter (Enterococcus strain 8152) | Category (Enterococcus strain 8153) | Diameter (Enterococcus strain 8153) | Cat. [2] | D [2] | Cat. [3] | D [3] | Cat. [4] | D [4] | Cat. (E. coli strain 8155) | D (E. coli strain 8155) | Cat. (E. coli strain 8156) | D (E. coli strain 8156) | Cat. (E. coli strain 8157) | D (E. coli strain 8157) | Cat. [5] | D [5] | Cat. [6] | D [6] | further results
1 | O=C/C=C/c1ccccc1 [trans-cinnamaldehyde] | – | – | – | – | – | – | – | – | – | – | – | – | – | – | – | – | – | – | – | – | Spectrum of antibacterial activity [1]: antibacterial activity on both Gram-positive bacteria and Gram-negative bacteria
2 | C[C@H]1COc2c(N3CCN(C)CC3)c(F)cc3c(=O)c(C(=O)O)cn1c23 [Levofloxacin] | S | 29 | S | 26 | R | 0 | R | 10 | R | 10 | S | 31 | S | 31 | R | 11 | R | 0 | S | 26 | Cat. (E. coli strain 8154): S; D (E. coli strain 8154): 36; Cat. [7]: S; D [7]: 23; Cat. [8]: R; D [8]: 0; Category [9]: R; Category [10]: R; Category [11]: S; Category (Cat.) (E. coli ATCC 25922): S; Diameter (D) (E. coli ATCC 25922): 31
3 | Gentamicin | R | 15 | R | 14 | S | 27 | S | 26 | S | 28 | S | 21 | S | 25 | S | 25 | R | 0 | S | 21 | Cat. (E. coli strain 8154): S; D (E. coli strain 8154): 21; Cat. [7]: S; D [7]: 27; Cat. [8]: R; D [8]: 16; Category [9]: S; Category (E. coli strain 9003): S; Category [12]: S; Category [10]: R; Category [11]: S; Category (Cat.) (E. coli ATCC 25922): S; Diameter (D) (E. coli ATCC 25922): 25
